Reference: patent publication US20120040996A1, “3-BENZOFURANYL-INDOL-2-ONE DERIVATIVES SUBSTITUTED AT THE 3 POSITION, PREPARATION THEREOF, AND THERAPEUTIC USE THEREOF” (SANOFI, priority 2009, published 2012)
pIC50: −log10 of the molar value.

Target: T1, ghrelin receptor (Rattus norvegicus, UniProt O08725)
T1 construct: Strips of approximately 1 cm (5 mm wide) of gastric fundus were cut out along the longitudinal axis; from tissue; host or cells: rat gastric fundus strips
Assay: Ghrelin concentration-response on electrically stimulated isolated rat gastric fundus strips (headed "In Vivo Test")
Conditions: electric-field stimulation, ghrelin 0.1 nM-1 μM, antagonist contact time 30 minutes, read-out: IC50, antagonist activity towards the ghrelin receptor
Description: Male Crl CD BR rats (Charles River, Italy) weighing 150-175 g were housed in a chamber at regulated temperature (22±1° C.) and humidity (55±10%) and with a 12-hour lightness-darkness cycle, for at least 7 days before their use. Feed and water were available ad libitum. The feed was removed 18 hours before sacrificing the animals. The rats were sacrificed by cervical dislocation, and the stomach was removed surgically, opened along the shorter curvature and placed in a Krebs solution (of composition (mM): 118.4 NaCl; 4.7 KCl; 2.5 CaCl2; 3.7 NaH2PO4; 1.2 MgSO4; 25 NaHCO3; 5.6 glucose). The animals were cared for and sacrificed according to the Sanofi-Aventis international code of ethics and the international principles governing the care and treatment of laboratory animals (EEC Directive 86/609, DJL358, 1, 12 Dec. 1987). […] The contractions were recorded by computer with a data recording and analysis system (Power Lab, Chart 5) connected to isotonic transducers (Ugo Basile, Varese, Italy) via preamplifiers (Octal Bridge Amp). […] The pKb values for the antagonists were calculated according to the Cheng-Prusoff equation (Kenakin et al., Competitive Antagonism, Pharmacologic Analysis of Drug-Receptor Interaction, 3rd edition, 331-373, Philadelphia, New York; Raven: Lippincott, 1997).

T1 sequence (O08725 whole entry): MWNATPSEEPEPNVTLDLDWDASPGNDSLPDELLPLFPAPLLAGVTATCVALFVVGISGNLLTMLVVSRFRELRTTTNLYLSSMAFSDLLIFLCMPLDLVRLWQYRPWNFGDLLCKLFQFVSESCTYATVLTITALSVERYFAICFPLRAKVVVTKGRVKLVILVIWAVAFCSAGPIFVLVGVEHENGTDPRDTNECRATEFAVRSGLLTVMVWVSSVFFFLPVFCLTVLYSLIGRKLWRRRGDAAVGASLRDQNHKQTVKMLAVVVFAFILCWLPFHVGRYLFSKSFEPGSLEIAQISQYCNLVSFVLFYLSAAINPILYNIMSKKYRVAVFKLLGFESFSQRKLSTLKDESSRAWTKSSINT

- pIC50: 7.66
Structure (SMILES): CCN1CCN(CC(=O)NC2(c3ccc4occc4c3)C(=O)Nc3cc(Cl)cc(Cl)c32)CC1 (single isomer, unassigned; (+)) [Example 1, (+)-N-[4,6-Dichloro-3-(benzofuran-5-yl)-2-oxo-2,3-dihydro-1H-indol-3-yl]-2-(4-ethylpiperazin-1-yl)acetamide]
